Earlier results in PMC6270305 (Molecules, 2013).
Where two headings read alike, the source gives them in different places.

[1] = human serum, peptide described in the preliminary communication

Compound | t1/2 (human serum half-life) [1] | t1/2 (human serum half-life) (human, serum)
[L-Msa7]-SRIF [Peptide 2] | 5.2 h | –
Cc1cc(C)c(C[C@@H]2NC(=O)[C@H](Cc3ccccc3)NC(=O)[C@H](CC(N)=O)NC(=O)[C@H](CCCCN)NC(=O)[C@@H](NC(=O)CNC(=O)[C@H](C)N)CSSC[C@@H](C(=O)O)NC(=O)[C@H](CO)NC(=O)[C@H]([C@@H](C)O)NC(=O)[C@H](Cc3ccccc3)NC(=O)[C@H]([C@@H](C)O)NC(=O)[C@H](CCCCN)NC(=O)[C@@H](Cc3c[nH]c4ccccc34)NC2=O)c(C)c1 [Peptide 5, [L-Msa7,D-Trp8]-SRIF] | – | 25 h
[L-Msa6,D-Trp8]-SRIF [Peptide 4] | 26 h | –
[L-Msa11,D-Trp8]-SRIF [Peptide 6] | 41 h | –
